Target: T1, HDAC6 (Homo sapiens, UniProt Q9UBN7)
T1 sequence (Q9UBN7 1-1215): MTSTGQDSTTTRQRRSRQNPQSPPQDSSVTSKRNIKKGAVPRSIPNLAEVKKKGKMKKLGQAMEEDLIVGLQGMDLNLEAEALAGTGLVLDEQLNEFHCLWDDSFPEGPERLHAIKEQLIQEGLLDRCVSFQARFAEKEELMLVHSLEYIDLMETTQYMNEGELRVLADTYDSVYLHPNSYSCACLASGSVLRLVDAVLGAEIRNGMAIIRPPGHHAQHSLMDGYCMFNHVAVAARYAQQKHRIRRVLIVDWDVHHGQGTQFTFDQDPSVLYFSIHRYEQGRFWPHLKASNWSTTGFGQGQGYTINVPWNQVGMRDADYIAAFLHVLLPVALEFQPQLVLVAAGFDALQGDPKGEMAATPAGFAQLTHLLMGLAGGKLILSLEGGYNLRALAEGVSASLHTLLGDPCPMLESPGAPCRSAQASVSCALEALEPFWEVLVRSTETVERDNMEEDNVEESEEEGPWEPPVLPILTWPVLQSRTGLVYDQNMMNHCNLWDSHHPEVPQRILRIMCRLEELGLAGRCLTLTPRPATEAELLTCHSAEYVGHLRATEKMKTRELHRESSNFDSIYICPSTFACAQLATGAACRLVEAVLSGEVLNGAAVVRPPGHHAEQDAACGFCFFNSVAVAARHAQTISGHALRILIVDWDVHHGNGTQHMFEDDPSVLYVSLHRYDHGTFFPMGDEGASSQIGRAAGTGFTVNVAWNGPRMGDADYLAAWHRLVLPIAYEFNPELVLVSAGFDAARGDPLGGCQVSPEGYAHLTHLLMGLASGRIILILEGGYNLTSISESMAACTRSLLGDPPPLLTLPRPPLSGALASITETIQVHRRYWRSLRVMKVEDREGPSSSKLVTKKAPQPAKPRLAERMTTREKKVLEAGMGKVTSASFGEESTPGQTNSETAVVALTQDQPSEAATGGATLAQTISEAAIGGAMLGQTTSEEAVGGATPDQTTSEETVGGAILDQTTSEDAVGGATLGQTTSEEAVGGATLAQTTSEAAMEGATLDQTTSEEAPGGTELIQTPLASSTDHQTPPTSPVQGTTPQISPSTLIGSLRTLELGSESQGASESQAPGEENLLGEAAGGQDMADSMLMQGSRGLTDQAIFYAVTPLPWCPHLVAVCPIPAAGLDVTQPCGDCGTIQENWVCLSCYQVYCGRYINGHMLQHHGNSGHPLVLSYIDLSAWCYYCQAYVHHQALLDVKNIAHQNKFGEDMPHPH
Assay: LCMS characterization of enzymatic deacetylation by HDAC6
Format: biochemical
Settings: 5 μM probe, 12 hours at 37° C.
Method: The enzymatic cleavage of HP-1 and HP-2 was analyzed by performing LCMS assays with HeLa nuclear extract (AnaSpec), HeLa whole cell lysate (Santa Cruz Inc.), and the following purified HDAC isoforms: 1, 2, 3, 6 and 8 (HDAC1, 3 and 8 from Cayman Chemicals and HDAC2 and 6 provided by Dr. Stephen Haggarty). Solutions containing (i) vehicle with DMSO in HDAC buffer, (ii) 5 μM probe in HDAC buffer, (iii) 5 μM probe and HDAC enzyme/HeLa nuclear extract/HeLa whole cell lysate in HDAC buffer, or (iv) 5 μM probe and HDAC enzyme/HeLa nuclear extract/HeLa whole cell lysate pre-incubated with 10 μM SAHA (Provided by Dr. Stephen Haggarty) in HDAC buffer were incubated for 12 hours at 37° C. Following incubation, a 20 μL aliquot of supernatant from each sample was analyzed by LCMS. […] For HP-1, the (M+H)^+ ion for the corresponding aldehyde (8, DHP-1) was detected, which formed following reaction of the initial imine deacetylation product with water. […] The peak area for each detected compound was measured to determine the % deacetylation of each probe. All assay samples were analyzed in triplicate. […]
LCMS characterization of HDAC enzymatic action on HP-1 and HP-2. […] Following incubation, an aliquot of supernatant from each sample was analyzed by LCMS. […] The peak area for each detected compound was measured to determine the % deacetylation of each probe (full experimental details in Example 1).

Which results are given for CC(=O)NC=CCCCCNC(=O)CCCCCNc1ccc([N+](=O)[O-])c2nonc12 [HP-1]?
% HP-1 to DHP-1 (HDAC6, +SAHA (10 μM)): 0%; % HP-1 to DHP-1 (HDAC6, −SAHA): 0%

— US20160138077A1, “MONITORING AND ASSESSING DEACETYLASE ENZYME ACTIVITY” (THE GENERAL HOSPITAL CORPORATION, priority 2013, published 2016)
